The target of one assay is LPA2 (Homo sapiens, UniProt Q9HBW0). The experiment in a line: TGFα shedding assay, LPA2. The format is cell-based. The note with it: for EC50: EC50, HEK293 cells, human LPA2 + AP-TGFα + Gαq/s, 1 h 37°C; for <RIA>: relative to 18:1-LPA (1) = 1 of the same table.
The target of assay [1] is T1, LPA4 (Homo sapiens, UniProt Q99677).
For assay [2], the target named is T1, LPA4. The experiment in a line: cell-based.
The target of the next assay is LPA5 (Homo sapiens, UniProt Q9H1C0).
Another assay deals with LPA1 (Homo sapiens, UniProt Q92633).

A value given as a limit tells only on which side of the number the result lay.

Results on eight compounds are retold here after PMC10753746 (ACS Omega, 2023).

T1 sequence (Q99677 whole entry): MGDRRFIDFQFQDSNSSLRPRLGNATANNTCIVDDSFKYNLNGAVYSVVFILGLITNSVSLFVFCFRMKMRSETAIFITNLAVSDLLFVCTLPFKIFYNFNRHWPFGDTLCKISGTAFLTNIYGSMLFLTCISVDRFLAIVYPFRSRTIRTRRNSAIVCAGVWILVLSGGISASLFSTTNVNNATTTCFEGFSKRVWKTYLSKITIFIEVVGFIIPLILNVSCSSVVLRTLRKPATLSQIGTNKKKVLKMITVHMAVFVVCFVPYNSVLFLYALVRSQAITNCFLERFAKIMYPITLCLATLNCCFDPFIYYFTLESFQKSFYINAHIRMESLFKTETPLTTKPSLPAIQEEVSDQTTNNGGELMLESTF
Sequence of LPA2 (Q9HBW0 whole entry): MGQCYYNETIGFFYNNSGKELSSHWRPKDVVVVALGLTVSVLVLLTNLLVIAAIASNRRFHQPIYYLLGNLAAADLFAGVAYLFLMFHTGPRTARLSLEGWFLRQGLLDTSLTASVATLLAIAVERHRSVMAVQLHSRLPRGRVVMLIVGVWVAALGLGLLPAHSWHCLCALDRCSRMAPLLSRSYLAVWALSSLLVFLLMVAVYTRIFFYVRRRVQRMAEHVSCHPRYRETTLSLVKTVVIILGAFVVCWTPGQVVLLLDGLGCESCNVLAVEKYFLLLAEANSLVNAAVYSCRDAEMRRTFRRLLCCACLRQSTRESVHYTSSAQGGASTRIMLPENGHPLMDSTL
Sequence of LPA1 (Q92633 whole entry): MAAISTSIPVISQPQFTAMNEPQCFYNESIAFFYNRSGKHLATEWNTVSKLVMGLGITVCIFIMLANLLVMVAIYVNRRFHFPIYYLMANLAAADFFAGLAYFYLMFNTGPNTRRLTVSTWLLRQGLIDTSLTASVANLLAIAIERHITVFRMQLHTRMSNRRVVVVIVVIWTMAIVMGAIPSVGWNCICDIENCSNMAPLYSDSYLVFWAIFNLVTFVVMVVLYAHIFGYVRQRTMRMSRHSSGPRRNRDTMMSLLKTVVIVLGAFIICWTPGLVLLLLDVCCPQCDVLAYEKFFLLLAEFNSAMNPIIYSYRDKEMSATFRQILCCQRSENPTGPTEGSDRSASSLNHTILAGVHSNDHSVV
Sequence of LPA5 (Q9H1C0 whole entry): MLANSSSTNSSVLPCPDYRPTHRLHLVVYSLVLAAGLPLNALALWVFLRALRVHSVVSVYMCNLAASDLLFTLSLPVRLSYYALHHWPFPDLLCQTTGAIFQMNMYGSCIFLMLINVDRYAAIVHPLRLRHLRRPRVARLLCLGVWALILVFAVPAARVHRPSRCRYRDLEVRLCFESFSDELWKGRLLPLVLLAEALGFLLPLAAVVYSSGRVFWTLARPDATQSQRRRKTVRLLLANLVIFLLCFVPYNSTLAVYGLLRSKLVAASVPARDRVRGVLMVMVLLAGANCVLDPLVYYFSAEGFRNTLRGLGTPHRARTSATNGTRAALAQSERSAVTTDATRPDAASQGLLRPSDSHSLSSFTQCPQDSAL

One may read the Emax as the greatest response seen or fitted, relative to the assay's reference. Usually EC50 stands for the concentration at which the effect is half-maximal. Consider `CCCCCCCCCCCCCCCCO[C@@H]1CCCO[C@H]1COP(O)(O)=S` [MZN-018], for which, on LPA2, the Emax came to 16% and the EC50 amounted to 1000 nM. Moreover, at LPA2 (LPA2), the “<RIA>” value was <0.012>. The Emax at LPA4 [1] was determined as 6.4%.

Regarding `CCCCCCCC/C=C\CCCCCCCC(=O)N1CCC[C@H]1COP(O)(O)=S` [MZN-019], the Emax at LPA2 worked out at 42%; on LPA4 [1] it was 16%. For the same compound, the EC50 is 1600 nM at LPA2 and 8.32 nM on LPA4 [2]. Further, at LPA2 (LPA2), the “<RIA>” value is <0.022>.

Regarding `CCCCCCCCCCCCCCCC(=O)N1CCC[C@H]1COP(O)(O)=S` [MZN-020], at LPA2, the Emax was determined as 44% and the EC50 came to 630 nM. Further, on LPA4 [1], the Emax was 19%.

As to `CCCCCCCCCCCCCCCC(=O)O[C@@H]1CCCO[C@H]1COP(O)(O)=S` [MZN-021], at LPA2 (LPA2), the “agonistic activity in words” value is “no activity”. Besides, the Emax at LPA4 [1] amounted to 21%.

As for `CCCCCCCC/C=C/CCCCCCCC(=O)O[C@@H]1CCCO[C@H]1COP(O)(O)=S` [MZN-022], the Emax at LPA4 [1] came out at 23%; on LPA5 it was 51%; on LPA1, 16%.

`CCCCCCc1ccccc1CCCCCCC(=O)O[C@@H]1CCCO[C@H]1COP(O)(O)=S` [MZN-023]: the Emax at LPA4 [1] came to 18%.

Take `CCCCCCc1cccc(CCCCCCC(=O)O[C@@H]2CCCO[C@H]2COP(O)(O)=S)c1` [MZN-024]: the Emax on LPA4 [1] is 22%.

As to `CCCCCCc1ccc(CCCCCCC(=O)O[C@@H]2CCCO[C@H]2COP(O)(O)=S)cc1` [MZN-025], on LPA4 [1], the Emax is 23%.
